From PMC4854315, “Discovery of a novel allosteric inhibitor-binding site in ERK5: comparison with the canonical kinase hinge ATP-binding site” (Acta Crystallographica. Section D, Structural Biology, 2016)
Where two headings read alike, the source gives them in different places.

Legend:
ERK5 signalling = tested on: ERK5 signalling; set-up: method as in Gavine et al., 2015; conditions: HEK293 cell line stably co-expressing MEK5CA and ERK5; ref Gavine et al., 2015; cited from earlier work
recombinant human ERK5 = target: T1, recombinant human ERK5 (Homo sapiens, UniProt Q13164); assay: TR-FRET (LANCE Ultra) biochemical assay of ERK5 kinase activity
T1 construct: Catalytically active kinase domain of recombinant human ERK5 enzyme was purchased from Carna Biosciences; purchased Carna Biosciences
T1 sequence (Q13164 55-347 limits assumed): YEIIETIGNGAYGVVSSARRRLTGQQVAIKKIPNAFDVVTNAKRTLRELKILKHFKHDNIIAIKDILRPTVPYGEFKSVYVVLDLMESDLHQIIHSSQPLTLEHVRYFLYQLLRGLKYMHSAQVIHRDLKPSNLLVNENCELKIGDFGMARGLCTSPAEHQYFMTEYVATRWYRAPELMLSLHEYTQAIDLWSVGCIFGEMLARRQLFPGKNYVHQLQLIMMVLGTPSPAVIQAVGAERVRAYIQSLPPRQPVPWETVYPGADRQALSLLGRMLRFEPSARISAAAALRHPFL
Description: Catalytically active kinase domain of recombinant human ERK5 enzyme was purchased from Carna Biosciences. […] The inhibitory potency of compounds against ERK5 was evaluated using the LANCE Ultra technology from PerkinElmer according to the manufacturer’s instructions. Briefly, 3 µl of different concentrations of ATP and 100 nM ULight-eIF4E-binding protein 1 (Thr37/46) peptide (Perkin-Elmer catalogue No. TRF0128) were incubated in the presence of serially diluted compound or DMSO control at room temperature in 384-well Greiner white polystyrene assay plates. The reaction was initiated by the addition of 3 µl of 10 nM kinase. The assay buffer consisted of 1 mM DTT, 10 mM MgCl2, 1 mM EGTA, 0.01%(v/v) Tween 20 in 50 mM HEPES pH 7.5. After 60 min incubation, the reaction was stopped by the addition of 6 µl stop/detection reagent mixture consisting of 20 mM EDTA and 4 nM Eu-anti-phospho-eIF4E-binding protein 1 (Thr37/46) antibody (PerkinElmer catalogue No. TRF0216) diluted in detection buffer. The plates were incubated for 1 h before the fluorescence was measured at 615 and 665 nm with an excitation wavelength of 320 nm using an EnVision Multilabel Reader from Perkin-Elmer in time-resolved fluorescence resonance energy transfer (TR-FRET) mode. The calculated signal ratio at 665/615 nm is proportional to the kinase activity. The concentration of compound producing 50% inhibition of the kinase activity (IC50) was calculated by using GraphPad Prism to fit the data to a symmetrical sigmoidal curve.

[1] = TR-FRET enzymatic assay, phosphorylated ERK5, read-out: ERK5 IC50

| Molecule | Block of downstream ERK5 signalling (ERK5 signalling) | IC50 (recombinant human ERK5; [1]) | Mode of ERK5 inhibition with respect to ATP (recombinant human ERK5; ATP-competition study, IC50 curves at different ATP concentrations) | IC50 (recombinant human ERK5; ERK5 IC50 at [ATP] 20 µM, [ATP] 20 µM) | IC50 (recombinant human ERK5; ERK5 IC50 at [ATP] 40 µM, [ATP] 40 µM) | IC50 (recombinant human ERK5; ERK5 IC50 at [ATP] 60 µM, [ATP] 60 µM) | IC50 (recombinant human ERK5; ERK5 IC50 at [ATP] 200 µM, [ATP] 200 µM) | IC50 (recombinant human ERK5; ERK5 IC50 at [ATP] 1000 µM, [ATP] 1000 µM) | IC50 (recombinant human ERK5; ERK5 IC50 at [ATP] 2000 µM, [ATP] 2000 µM) | IC50 (recombinant human ERK5; [ATP] 80 µM, read-out: ERK5 IC50 at [ATP] 80 µM) | IC50 (recombinant human ERK5; [ATP] 500 µM, read-out: ERK5 IC50 at [ATP] 500 µM) |
| --- | --- | --- | --- | --- | --- | --- | --- | --- | --- | --- | --- |
| XMD8-92 [Compound 2, reference compound] | able to block downstream ERK5 signalling | – | – | – | – | – | – | – | – | – | – |
| Cc1ncc(-c2nc(Nc3ccc(C(=O)NCCN4CCCCC4)cc3)ncc2F)n1C(C)C [Compound 3] | – | 0.042 µM | – | – | – | – | – | – | – | – | – |
| Cc1cc(Nc2nc(N)nn2C(=O)NC(C)C)ccc1Cl [Compound 5] | – | 2.3 µM | ATP-competitive | 2.3 µM | 2.9 µM | 3.1 µM | 4.1 µM | 9.9 µM | 14.8 µM | 3.4 µM | 6.3 µM |
